The source of these data is PubChem BioAssay (NCI).

Some test systems named below: CAKI-1 renal; UACC-257 melanoma; OVCAR-3 ovarian; COLO 205 colon; SK-MEL-28 melanoma; NCI-H226 lung; MOLT-4 leukemia; NCI-H522 lung; M14 melanoma; SW-620 colon.
Common to all, as to assay: NCI anticancer screen, dose series, 48 h

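Method: 48-hour compound exposure of cells in 96-well plates, five concentrations, linear interpolation of endpoints. Abbreviation: GI50, concentration required for 50% inhibition of growth. At the TGI there is no net growth.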

For `CC1=C(/C=C/C(C)=C\C=C\C(C)=C\C(=O)Nc2ccc3c(c2)OCO3)C(C)(C)CCC1`, the GI50 in the experiment with CAKI-1 renal is > 100 µM; in the experiment with UACC-257 melanoma, 29.4 µM; in the experiment on OVCAR-3 ovarian, > 100 µM; in the experiment on COLO 205 colon it was 37.8 µM; in the experiment on SK-MEL-28 melanoma, > 100 µM; with NCI-H226 lung it was > 100 µM. Besides, the GI50 in the experiment on MOLT-4 leukemia is 16.1 µM; in the experiment with NCI-H522 lung it was 14.1 µM; in the experiment with M14 melanoma it was > 100 µM; with SW-620 colon, > 100 µM. Further, the TGI with CAKI-1 renal, with UACC-257 melanoma, with OVCAR-3 ovarian, in the experiment with COLO 205 colon, in the experiment with SK-MEL-28 melanoma and in the experiment with NCI-H226 lung was > 100 µM each time. Further, the TGI in the experiment on MOLT-4 leukemia, in the experiment with NCI-H522 lung, in the experiment with M14 melanoma and in the experiment on SW-620 colon was > 100 µM in each case.
For the compound `CC(C)(C)N1CCC1C(N)=O` (stereo not given), the GI50 with CAKI-1 renal, with UACC-257 melanoma, in the experiment on OVCAR-3 ovarian, in the experiment with COLO 205 colon, in the experiment with SK-MEL-28 melanoma and with NCI-H226 lung was > 100 µM in each case. The GI50 with MOLT-4 leukemia, in the experiment on NCI-H522 lung, in the experiment on M14 melanoma and in the experiment with SW-620 colon was > 100 µM in each case. The TGI with CAKI-1 renal, in the experiment with UACC-257 melanoma, in the experiment on OVCAR-3 ovarian, in the experiment on COLO 205 colon, with SK-MEL-28 melanoma and with NCI-H226 lung was > 100 µM in each case. The TGI in the experiment on MOLT-4 leukemia, in the experiment with NCI-H522 lung, in the experiment on M14 melanoma and in the experiment on SW-620 colon was > 100 µM each time.
For the compound `C[C@]12CCC3[C@@H](C[C@@H]4SC(Nc5ccccc5)=N[C@@]45CC(=O)CC[C@]35C)[C@@H]1CCC2=O` (stereo not given in full), the GI50 with CAKI-1 renal was 13 µM; in the experiment on UACC-257 melanoma it was 23.8 µM; in the experiment on OVCAR-3 ovarian it was 4.41 µM; with COLO 205 colon, 12.3 µM; in the experiment with SK-MEL-28 melanoma, 20.5 µM; in the experiment with NCI-H226 lung, 7.36 µM. Besides, the GI50 was 2.84 µM with MOLT-4 leukemia, 6.6 µM in the experiment on NCI-H522 lung, 7.88 µM in the experiment on M14 melanoma and 3.38 µM in the experiment with SW-620 colon. For the same compound, the TGI was 30.2 µM in the experiment with CAKI-1 renal; 94.5 µM in the experiment on UACC-257 melanoma; 50.8 µM in the experiment on OVCAR-3 ovarian; 37.4 µM in the experiment on COLO 205 colon; > 100 µM in the experiment on SK-MEL-28 melanoma; 45 µM with NCI-H226 lung. The TGI in the experiment with MOLT-4 leukemia is > 100 µM; in the experiment on NCI-H522 lung, 23.6 µM; in the experiment on M14 melanoma it was 50.9 µM; with SW-620 colon it was 15.6 µM.
Consider `Cc1ccc2c(c1)nc(C(=O)c1ccco1)c(C(F)(F)F)[n+]2[O-]`, for which the GI50 was 77 µM with CAKI-1 renal; 63.4 µM in the experiment on UACC-257 melanoma; > 100 µM with OVCAR-3 ovarian; > 100 µM in the experiment on COLO 205 colon; > 100 µM in the experiment with SK-MEL-28 melanoma; > 100 µM with NCI-H226 lung. Moreover, the GI50 in the experiment with MOLT-4 leukemia is > 100 µM; in the experiment on NCI-H522 lung, 66.7 µM; with M14 melanoma, > 100 µM; with SW-620 colon it was 1.75 µM. In addition, the TGI in the experiment with CAKI-1 renal, in the experiment with UACC-257 melanoma, in the experiment with OVCAR-3 ovarian, in the experiment with COLO 205 colon, in the experiment with SK-MEL-28 melanoma and in the experiment on NCI-H226 lung was > 100 µM throughout. The TGI in the experiment with MOLT-4 leukemia was > 100 µM; with NCI-H522 lung, > 100 µM; in the experiment with M14 melanoma, > 100 µM; in the experiment on SW-620 colon, 3.33 µM.
Consider `CSc1nc2c(c(=O)[nH]1)N=C1c3ccccc3C(=O)C1C(c1ccc(F)cc1)N2` (stereo not given), for which the GI50 is 3.31 µM in the experiment with CAKI-1 renal; 26 µM with UACC-257 melanoma; 3.38 µM with OVCAR-3 ovarian; 13 µM in the experiment with COLO 205 colon; 9.03 µM in the experiment with SK-MEL-28 melanoma; 15.3 µM in the experiment with NCI-H226 lung. The GI50 in the experiment on MOLT-4 leukemia is 19.5 µM; with NCI-H522 lung it was 3.17 µM; in the experiment with M14 melanoma, 6.29 µM; in the experiment on SW-620 colon, 4.48 µM. The TGI was 35.6 µM in the experiment on CAKI-1 renal; > 100 µM in the experiment on UACC-257 melanoma; 12.5 µM in the experiment on OVCAR-3 ovarian; > 100 µM in the experiment on COLO 205 colon; 62.4 µM in the experiment on SK-MEL-28 melanoma; 45.6 µM in the experiment on NCI-H226 lung. The TGI with MOLT-4 leukemia is > 100 µM; in the experiment with NCI-H522 lung it was 37.9 µM; with M14 melanoma, > 100 µM; in the experiment on SW-620 colon, 70.7 µM.
As for `O=C(O)C(=Cc1ccnc2ccccc12)C(=O)O`, the TGI in the experiment with CAKI-1 renal, in the experiment on UACC-257 melanoma, in the experiment with OVCAR-3 ovarian, in the experiment on COLO 205 colon, in the experiment on SK-MEL-28 melanoma and in the experiment with NCI-H226 lung was > 100 µM in each case. The TGI with MOLT-4 leukemia, in the experiment with NCI-H522 lung, in the experiment with M14 melanoma and with SW-620 colon was > 100 µM throughout.
`Cc1ccc(C(CN(C)C)C(=O)c2ccccc2)cc1` (stereo not given): the GI50 was 2.64 µM with CAKI-1 renal; 5.74 µM in the experiment with UACC-257 melanoma; 1.86 µM with OVCAR-3 ovarian; 2.2 µM with COLO 205 colon; 2.83 µM in the experiment on SK-MEL-28 melanoma; 2.97 µM with NCI-H226 lung. The GI50 was 1.68 µM in the experiment with MOLT-4 leukemia, 1.8 µM in the experiment on NCI-H522 lung, 1.91 µM with M14 melanoma and 0.894 µM in the experiment with SW-620 colon. The TGI in the experiment on CAKI-1 renal was found to be 7.97 µM; in the experiment on UACC-257 melanoma, 19.2 µM; in the experiment with OVCAR-3 ovarian, 3.55 µM; with COLO 205 colon it was 4.91 µM; in the experiment on SK-MEL-28 melanoma, 8.37 µM; with NCI-H226 lung it was 20.9 µM. The TGI in the experiment on MOLT-4 leukemia worked out at 5.75 µM; with NCI-H522 lung, 3.52 µM; in the experiment with M14 melanoma, 4.35 µM; in the experiment on SW-620 colon, 2.71 µM.
On to `COC(=O)C(CCS(=O)(=O)CC(=O)C(=O)Nc1cccc(C(C)=O)c1)C(=O)OC`, for which the TGI with CAKI-1 renal is > 100 µM; in the experiment with UACC-257 melanoma, > 100 µM; in the experiment on OVCAR-3 ovarian it was > 100 µM; in the experiment on COLO 205 colon, > 94.2 µM; in the experiment on SK-MEL-28 melanoma, > 100 µM; in the experiment with NCI-H226 lung, > 100 µM. In addition, the TGI with MOLT-4 leukemia, in the experiment on NCI-H522 lung, in the experiment with M14 melanoma and in the experiment with SW-620 colon was > 100 µM each time.
